For data set [1] the following is noted: 30 mg/kg, mouse CIA experiment; cited from earlier work.
The target in data set [2] is T1, human androgen receptor (AR) (Homo sapiens, UniProt P10275).
T1 construct: expressed in transfected cells; host or cells: CHO K1
T1 sequence (P10275 1-920): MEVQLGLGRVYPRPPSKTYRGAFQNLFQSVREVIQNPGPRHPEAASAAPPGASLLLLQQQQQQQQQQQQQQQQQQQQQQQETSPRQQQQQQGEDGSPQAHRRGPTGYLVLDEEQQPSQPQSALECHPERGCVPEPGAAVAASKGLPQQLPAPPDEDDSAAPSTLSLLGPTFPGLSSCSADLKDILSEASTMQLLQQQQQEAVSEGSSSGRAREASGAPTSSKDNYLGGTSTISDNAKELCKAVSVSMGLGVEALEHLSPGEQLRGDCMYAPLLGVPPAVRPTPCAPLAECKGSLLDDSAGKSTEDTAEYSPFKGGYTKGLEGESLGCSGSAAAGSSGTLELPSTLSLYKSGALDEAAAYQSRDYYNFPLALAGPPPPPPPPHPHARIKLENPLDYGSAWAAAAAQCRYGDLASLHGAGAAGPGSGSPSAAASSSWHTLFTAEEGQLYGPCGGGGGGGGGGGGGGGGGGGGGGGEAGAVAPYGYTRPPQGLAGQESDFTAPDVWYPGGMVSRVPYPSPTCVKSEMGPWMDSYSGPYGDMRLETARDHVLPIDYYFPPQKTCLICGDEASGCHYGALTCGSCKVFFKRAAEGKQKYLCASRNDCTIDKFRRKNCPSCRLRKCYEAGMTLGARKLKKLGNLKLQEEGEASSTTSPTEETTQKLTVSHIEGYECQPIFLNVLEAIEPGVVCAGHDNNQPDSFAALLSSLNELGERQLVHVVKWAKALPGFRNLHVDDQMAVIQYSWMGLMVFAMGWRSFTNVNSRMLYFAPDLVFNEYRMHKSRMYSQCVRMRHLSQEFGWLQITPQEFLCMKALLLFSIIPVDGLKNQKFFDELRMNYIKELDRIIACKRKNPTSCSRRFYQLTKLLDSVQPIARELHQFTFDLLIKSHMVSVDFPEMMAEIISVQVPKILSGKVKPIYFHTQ
Description: CHO steroid receptor reporter assay, AR / MMTV-Luc. The data set is classed as cell-based. The text has this:
(§1) For monitoring both human steroid receptor agonistic as well as antagonistic activity of compounds, Chinese hamster ovary (CHO) K1 cells stably co-transfected with the specific human steroid receptor and its respective reporter construct were used (as previously described).
(§2) For human glucocorticoid receptor (GR)-specific activity CHO-GR B4.8 cells containing both recombinant human GR as well as a reporter construct consisting of the mouse mammary tumor virus (MMTV) promotor and the luciferase reporter gene, were used. Compound was incubated alone (in the agonistic setup) or with 50 nM dexamethasone (in the antagonistic setup) overnight. Hereafter, 200 µl medium was removed and 50 µl luciferine substrate solution from the LucLite luminescence kit (Packard, Meriden, USA) was added. […] Percentage maximal antagonistic efficacy was related to the maximal antagonistic efficacy of reference GR antagonist Org 34116. Similar procedures were followed for the other human steroid receptor assays (for more detailed information see Supportive Information) (SI text).
(§3) Similar procedures were followed for the other human steroid receptor assays containing combinations of human progesterone receptor B (PR-B) and MMTV-Luc, human androgen receptor (AR) and MMTV-Luc, human chimeric glucocorticoid-mineralocorticoid receptor (GGM, Trapp et al. (1994), Neuron 13: 1457) and MMTV-Luc, human estrogen receptor alpha (ERα) and rat oxytocin-Luc (45), and human estrogen receptor beta (ERβ) and rat oxytocin-Luc, respectively.
(In general: In a reporter assay the amount or activity of a reporter protein is the signal.)

Data set [3] has as its system endometrium in estrogen-primed immature rabbits. Description: anti-McPhail test (antagonistic, anti-progestational activity). The data set is classed as in vivo, rabbit. The following applies: 0-4 scale; 7 days with progesterone; RU486 4 mg/kg/day, Org 214007-0 0.5 mg/kg/day oral; n=2. The procedure: For the anti-McPhail test, the estrogen-primed rabbits were subsequently treated for 7 days with inducer progesterone (0.25 mg/kg/day s.c.) in combination with an oral treatment of either placebo, reference RU486 (4 mg/kg/day) or Org 214007-0 (0.5 mg/kg/day). The uterus preparation and evaluation of the endometrium was performed as described above.
For the antagonistic test, after oestrogen priming, rabbits were treated for 7 days with progesterone and placebo, reference RU486 or Org 214007-0. One day after the last treatment the uterus was dissected and endometrial development was scored on a 0-4 scale. […] After treatment with Org 214007-0 no reduction of the endometrial transformation was observed (score 3.31), indicative for no anti-progestagenic activity

Data set [4] shares this test system. Put plainly: McPhail test (agonistic, progestational activity). The data set is classed as in vivo, rabbit. The following applies: 0-4 scale; 5 days; MPA 0.05 mg/kg/day, Org 214007-0 0.5 mg/kg/day; n=2. As for the experimental part: The McPhail (or anti-McPhail) test was used to evaluate potential progestational (or anti-progestational) activity of Org 214007-0 on the endometrium in estrogen-primed immature rabbits after once-daily administration. The female NZW rabbits were housed in pairs in a light- and temperature-controlled room, fed daily with 40 - 50 g standard pelleted food and with free access to tap-water. Before treatment with compounds rabbits were primed daily in the morning with a subcutaneous dose of 2 μg estradiol benzoate for 8 days. […] Transverse sections were prepared, stained with haematoxylin-eosin and evaluated microscopically. Endometrial development was scored on a 0-4 scale as follows: score 0: no development of glands; score 1: start of development of glands; score 2: clear-cut development of glands with ducts beginning to branch; score 3: about 2/3 of stroma bearing glandual tissue; score 4: more than 2/3 of stroma bearing glandular tissue. A score of 2 or higher in both rabbits was evaluated as a positive resonse.
For both the agonistic and antagonistic test immature female NZW rabbits (n=2 per treatment group) were primed with estrogen. […] One day after the last treatment the uterus was dissected and endometrial development was scored on a 0-4 scale. […]

In data set [5] the target is T2, human estrogen receptor beta (ERβ) (Homo sapiens, UniProt Q92731).
T2 construct: expressed in transfected cells; host or cells: CHO K1
T2 sequence (Q92731 whole entry): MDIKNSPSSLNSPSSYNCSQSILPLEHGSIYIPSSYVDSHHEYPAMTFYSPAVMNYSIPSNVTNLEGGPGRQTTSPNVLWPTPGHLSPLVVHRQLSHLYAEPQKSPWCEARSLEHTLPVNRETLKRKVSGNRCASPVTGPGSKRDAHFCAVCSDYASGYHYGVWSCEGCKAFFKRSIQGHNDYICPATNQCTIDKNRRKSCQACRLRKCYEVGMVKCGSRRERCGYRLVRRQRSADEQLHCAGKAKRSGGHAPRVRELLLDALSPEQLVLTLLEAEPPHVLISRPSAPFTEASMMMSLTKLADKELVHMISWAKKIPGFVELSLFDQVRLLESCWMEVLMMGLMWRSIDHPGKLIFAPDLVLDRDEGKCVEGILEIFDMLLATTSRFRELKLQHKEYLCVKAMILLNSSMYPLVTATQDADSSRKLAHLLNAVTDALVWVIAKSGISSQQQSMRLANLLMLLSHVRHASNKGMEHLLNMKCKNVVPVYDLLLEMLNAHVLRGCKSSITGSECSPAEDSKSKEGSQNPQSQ
Put plainly: CHO steroid receptor reporter assay, ERβ / rat oxytocin-Luc. The data set is classed as cell-based. The following applies: ERß.
Excerpt: as §1, §2, §3

pEC50, pIC50: −log10 of the molar value.

For `C[C@]12C=CC(=O)C=C1CC[C@@H]1[C@@H]2[C@@H](O)C[C@@]2(C)[C@H]1CC[C@]2(O)C(=O)CO` [prednisolone, reference compound], the serum insulin levels result in data set [1] is “significantly elevated”.

For orientation: pEC50 means the negative decadic logarithm of the EC50, by convention in mol/L. As a reminder, the pIC50 is the IC50 on a negative log10 scale, so that one unit is a factor of ten. On to `Cc1nnsc1C(=O)N[C@H]1CCN2c3ccc(C#N)cc3[C@@H](C)c3ccccc3[C@@H]2C1` [Org 214007-0], for which the pEC50 in data set [2] (read-out: EC50 (agonist)) and in data set [5] (read-out: EC50 (agonist)) was under 7.00 in each case. The pIC50 in data set [2] (read-out: IC50 (antagonist)) and in data set [5] (read-out: IC50 (antagonist)) was under 6.00 throughout. Besides, the figures for the “% agonist potency” value in data set [2] (relative to reference compound) and in data set [5] (relative to reference compound) were under 0.13% and under 0.01%, respectively. Also, the “% antagonist potency” value in data set [2] (relative to reference compound) is on record as under 3.83%; in data set [5] (relative to reference compound) it was under 0.9%. Besides, the “endometrial development score, antagonistic test” value in data set [3] was 3.31. Also, the “endometrial development score, agonistic test” value in data set [4] was 0.5.
